Earlier results on two compounds are cited in patent US4039549A, “Olefinic derivatives of amino acids” (Merrell Toraude et Compagnie, priority 1976, dated 1977).

For data set [1], the system named is γ-aminobutyric acid transaminase. Conditions: literature.
Data set [2] has as its system brain levels of γ-aminobutyric acid. As to conditions: reversible effect; literature.

On to `NCC#CC(=O)O` [4-aminotetrolic acid], for which the “inhibition of γ-aminobutyric acid transaminase (mode)” value in data set [1] is listed as “competitive reversible inhibitor”.

In the case of `CCCC(CCC)C(=O)O` [n-dipropylacetate], in data set [1], the “inhibition of γ-aminobutyric acid transaminase (mode)” value is “competitively inhibiting”. In data set [2], the “duration of effect (elevation of brain γ-aminobutyric acid levels)” value is on record as “about 2 hours”.
